Measured values reported in ChEMBL document CHEMBL1150435, “Inhibition of antennal esterases of the egyptian armyworm Spodoptera littoralis by trifluoromethyl ketones” (Bioorg Med Chem Lett, 1993).

Experiments:
[1] = Tested for the ability to inhibit antennal esterases of Spodoptera littoralis with pre-incubation
[2] = Tested for its ability to inhibit antennal esterases of Spodoptera littoralis without pre-incubation
[3] = Compound was tested for competitive inhibition of antennal esterases of Spodoptera littoralis
Spodoptera littoralis = test: Tested for its ability to inhibit antennal esterases of Spodoptera littoralis without pre-incubation at 63 uM concentration

Row | SMILES | IC50 [1] [µM] | IC50 [2] [µM] | Ki [3] [µM] | inhibition (Spodoptera littoralis) [%]
1 | O=C(c1ccc2ccccc2c1)C(F)(F)F | 11.4 | 7.9 | 249 | 
2 | O=C(Cc1ccccc1)C(F)(F)F |  |  |  | 36
3 | O=C(c1cccc2ccccc12)C(F)(F)F |  |  |  | 38
4 | CCCCCCCCCCCCCCC(=O)C(F)(F)F | 18.4 |  |  | 
5 | O=C(CCc1ccccc1)C(F)(F)F |  |  |  | 43
6 | CCCCCCCCSCC(=O)C(F)(F)F | 0.55 | 3.7 | 25.1 | 
7 | CCCCCCCCCCCCCCCCC(=O)C(F)(F)F |  |  |  | 50
8 | CCCCCCCCCCCCCC(=O)C(F)(F)F | 4.4 | 11 |  | 
9 | CCCCCCCCCCCCCCCCCC(=O)C(F)(F)F |  |  |  | 44
10 | O=C(c1ccccc1)C(F)(F)F | 40.7 |  |  | 31
11 | CCCCCCCCCCC(=O)C(F)(F)F | 19.3 |  |  | 
12 | CCCCCCCCCCCCC(=O)C(F)(F)F | 1.16 | 10.6 | 29.8 | 
